{"source": "patent US7074768B2", "about": "“Modified protein kinase A-specific oligonucleotides and methods of their use” (Idera Pharmaceuticals, Inc., priority 1995, dated 2006)", "key": {"[1]": {"tested_on": "ZR75-1 human breast cancer cells", "experiment": "Soft agar growth of ZR75-1 cells", "format": "cell-based", "conditions": "for inhibition of cell growth: every 48 hours for three times (Examples 24, 25)", "procedure": "(§1) Cells (10^4 cells/well) were seeded in 0.5 ml of 0.3% Difco Noble agar (Difco, Detroit, Mich.) supplemented with complete culture medium. This suspension was layered over 0.5 ml of 0.8% agar-medium base layer in 24 multiwell cluster dishes (Becton Dickinson) and treated with various concentrations of docetaxel (day 0). […] Twelve days after the last treatment, cells were stained with nitroblue tetrazolium (Sigma) and colonies larger than 0.05 mm were counted.\nas §1\nSoft agar growth. Cells (10^4 cells/well) were seeded in 0.5 ml of 0.3% Difco Noble agar (Difco, Detroit, Mich.) supplemented with complete culture medium. This suspension was layered over 0.5 ml of 0.8% agar-medium base layer in 24 multiwell cluster dishes (Becton Dickinson) and treated with various concentrations of docetaxel (day 0). The HYB 165 was added after 12 hrs (day 1) and on day 3. Twelve days after the last treatment, cells were stained with nitroblue tetrazolium (Sigma) and colonies larger than 0.05 mm were counted.\nSoft agar growth. Cells (10^4 cells/well) were seeded in 0.5 ml of 0.3% Difco Noble agar (Difco, Detroit, Mich.) supplemented with complete culture medium. This suspension was layered over 0.5 ml of 0.8% agar-medium base layer in 24 multiwell cluster dishes (Becton Dickinson) and treated with various concentrations of docetaxel (day 0). The HYB 508 was added after 12 hrs and on day 2, 3 and 4. After 12 days the cells were stained with nitroblue tetrazolium (Sigma) and colonies larger than 0.05 mm were counted.\nSoft agar growth. Cells (10^4 cells/well) were seeded in 0.5 ml of 0.3% Difco Noble agar (Difco, Detroit, Mich.) supplemented with complete culture medium. […] After 12 days the cells were stained with nitroblue tetrazolium (Sigma) and colonies larger than 0.05 mm were counted.\nSoft agar growth. Cells (10^4 cells/well) were seeded in 0.5 ml of 0.3% Difco Noble agar (Difco, Detroit, Mich.) supplemented with complete culture medium. This suspension was layered over 0.5 ml of 0.8% agar-medium base layer in 24 multiwell cluster dishes (Becton Dickinson) and treated with various concentrations of HYB 165 or HYB295 every 48 hours for three times. After 12 days the cells were stained with nitroblue tetrazolium (Sigma, St. Louis, Mo.) and colonies larger than 0.05 mm were counted.\n(§2) Soft agar growth. Cells (10^4 cells/well) were seeded in 0.5 ml of 0.3% Difco Noble agar (Difco, Detroit, Mich.) supplemented with complete culture medium. This suspension was layered over 0.5 ml of 0.8% agar-medium base layer in 24 multiwell cluster dishes (Becton Dickinson) and treated with various concentrations of HYB 165 or HYB508 every 48 hours for three times. After 12 days the cells were stained with nitroblue tetrazolium (Sigma, St. Louis, Mo.) and colonies larger than 0.05 mm were counted."}, "[2]": {"tested_on": "1A9 human ovarian cancer cells", "experiment": "Soft agar growth of 1A9 cells", "format": "cell-based", "procedure": "Cell lines. The 1A9 cell line is a clone of the human ovarian carcinoma cell line, A2780. 1A9 cells were kindly provided by Giannakakou, NCI Bethesda, Md., USA. Cells were maintained in RPMI medium supplemented with 10% heat-inactivated FBS, 20 mM HEPES, pH 7.4 penicillin (100 UI/ml), streptomycin (100 μg/ml) and 4 mM glutamine (ICN, Irvine, UK) in a humified atmosphere of 95% air and 5% CO2 at 37° C.\nas §2"}, "AR": {"tested_on": "AR", "experiment": "Histochemical analysis of GEO tumors: AR", "format": "in vivo", "conditions": "after two cycles", "text": "Tumor specimens from the different groups of mice were examined by histochemical analysis at different time points to evaluate the expression of a variety of biological parameters.\nTGFα and AR are growth factors which bind to EGFR and control human colon cancer growth through autocrine and paracrine mechanisms (F. Ciardiello and G. Tortora, Clin. Cancer Res. 4:821–828 (1998); D. S. Salomon, Crit. Rev. Oncol. Hematol. 19:183–232 (1995))."}}}
{"substance": "HYB 165: Hybrid 18-mer mixed backbone antisense to PKA RIα, GCGUGCCTCCTCACUGGC (SEQ ID NO:4), 2-O-methyl ribonucleotides at 5′ and 3′ ends (sugars by position and backbone not given here; 2'-O-methyl ribonucleotides at both ends, mixed backbone)", "values": [{"measurement": "inhibition of cell growth", "setting": "[1]; 0.1 μM", "result": "approximately 5%"}, {"measurement": "inhibition of cell growth", "setting": "[1]; 1 μM", "result": "about 34%"}, {"measurement": "inhibition of cell growth", "setting": "[1]; 2.5 μM", "result": "over 85%"}, {"measurement": "growth inhibition", "setting": "[1]; HYB 165 0.1 μM + C225 0.25 μg/ml (days 1, 3) after docetaxel 0.01 nM (day 0)", "result": 93, "unit": "%"}, {"measurement": "growth inhibition", "setting": "[1]; HYB 165 0.1 μM + MAb C225 0.25 μg/ml", "result": 37, "unit": "%"}, {"measurement": "growth inhibition", "setting": "[1]; HYB 165 0.1 μM + MAb C225 0.5 μg/ml", "result": 65, "unit": "%"}, {"measurement": "growth inhibition", "setting": "[1]; HYB 165 0.1 μM + MAb C225 1 μg/ml", "result": 85, "unit": "%"}, {"measurement": "growth inhibition", "setting": "[1]; HYB 165 0.1 μM + MAb C225 2.5 μg/ml", "result": 90, "unit": "%"}, {"measurement": "growth inhibition", "setting": "[1]; HYB 165 0.1 μM after docetaxel 0.01 nM", "result": 40, "unit": "%"}, {"measurement": "growth inhibition", "setting": "[1]; HYB 165 0.1 μM after docetaxel 0.03 nM", "result": 70, "unit": "%"}, {"measurement": "growth inhibition", "setting": "[1]; HYB 165 0.1 μM after docetaxel 0.1 nM", "result": 86, "unit": "%"}, {"measurement": "growth inhibition", "setting": "[1]; HYB 165 0.1 μM after docetaxel 0.3 nM", "result": 97, "unit": "%"}, {"measurement": "growth inhibition", "setting": "[1]; HYB 165 0.1 μM alone (Example 13)", "result": "about 8%"}, {"measurement": "growth inhibition", "setting": "[1]; HYB 165 0.1 μM alone (Example 21)", "result": "about 5%"}, {"measurement": "growth inhibition", "setting": "[1]; HYB 165 0.1 μM alone (Example 23)", "result": "about 2%"}, {"measurement": "growth inhibition", "setting": "[1]; HYB 165 0.5 μM + MAb C225 0.25 μg/ml", "result": 57, "unit": "%"}, {"measurement": "growth inhibition", "setting": "[1]; HYB 165 0.5 μM + MAb C225 0.5 μg/ml", "result": 70, "unit": "%"}, {"measurement": "growth inhibition", "setting": "[1]; HYB 165 0.5 μM + MAb C225 1 μg/ml", "result": 90, "unit": "%"}, {"measurement": "growth inhibition", "setting": "[1]; HYB 165 0.5 μM + MAb C225 2.5 μg/ml", "result": 98, "unit": "%"}, {"measurement": "growth inhibition", "setting": "[1]; HYB 165 0.5 μM after docetaxel 0.01 nM", "result": 65, "unit": "%"}, {"measurement": "growth inhibition", "setting": "[1]; HYB 165 0.5 μM after docetaxel 0.03 nM", "result": 66, "unit": "%"}, {"measurement": "growth inhibition", "setting": "[1]; HYB 165 0.5 μM after docetaxel 0.3 nM", "result": 99, "unit": "%"}, {"measurement": "growth inhibition", "setting": "[1]; HYB 165 0.5 μM after docetaxel 0.1 1 nM", "result": 86, "unit": "%"}, {"measurement": "growth inhibition", "setting": "[1]; HYB 165 0.5 μM alone (Example 21)", "result": "about 15%"}, {"measurement": "growth inhibition", "setting": "[1]; HYB 165 0.5 μM alone (Example 23)", "result": "about 10%"}, {"measurement": "cooperative effect of the combination", "setting": "[1]; sequential combination with different doses of docetaxel", "result": "cooperatively inhibits the growth of ZR75-1 cells"}, {"measurement": "cooperative effect of the combination", "setting": "[1]; with MAb C225 0.25 μg/ml and docetaxel 0.01 nM", "result": "cooperatively inhibit the growth of ZR75-1 cells"}, {"measurement": "cooperative effect of the combination", "setting": "[1]; with different doses of MAb C225", "result": "cooperatively inhibit the growth of ZR-75-1 cells"}, {"measurement": "inhibition of cell growth", "setting": "[2]; 0.1 μM", "result": "approximately 5%"}, {"measurement": "inhibition of cell growth", "setting": "[2]; 0.5 μM", "result": "about 41%"}, {"measurement": "inhibition of cell growth", "setting": "[2]; 1 μM", "result": "about 90%"}, {"measurement": "inhibition of cell growth", "setting": "[2]; 2.5 μM", "result": "over 95%"}, {"measurement": "expression of AR", "setting": "AR; in combination with taxol", "result": "further enhanced"}, {"measurement": "expression of AR", "setting": "AR; single agent", "result": "inhibited the expression of TGF α and AR"}]}
